Measured values taken from US9242987B2, “Heterocyclyl pyrazolopyrimidine analogues as JAK inhibitors” (Cellzome Limited, priority 2009, dated 2016).

Assays:
[1] = biological target: T1, JAK2 (Homo sapiens, UniProt O60674); assay: Kinobeads assay, JAK2; assay type: binding; conditions: mixed Molt4/Ramos cell lysate, dot blot detection
T1 construct: endogenous in cells; host or cells: Mixed Molt4/Ramos lysate (1:2)
Outline: (§1)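 Lysate from Molt4 and Ramos cells combined 1:2 at 10 mg/mL total protein met test compound and an aminopyrido-pyrimidine affinity matrix for 3 h in the cold. Captured JAK2 and JAK3, after elution, were measured by specific-antibody dot blot on an infrared system; dose-response curves yielded IC50.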

[2] = biological target: T2, JAK3 (Homo sapiens, UniProt P52333); assay: Kinobeads assay, JAK3; assay type: binding; conditions: mixed Molt4/Ramos cell lysate, dot blot detection
T2 construct: endogenous in cells; host or cells: Mixed Molt4/Ramos lysate (1:2)
T2 sequence (P52333 1-1124): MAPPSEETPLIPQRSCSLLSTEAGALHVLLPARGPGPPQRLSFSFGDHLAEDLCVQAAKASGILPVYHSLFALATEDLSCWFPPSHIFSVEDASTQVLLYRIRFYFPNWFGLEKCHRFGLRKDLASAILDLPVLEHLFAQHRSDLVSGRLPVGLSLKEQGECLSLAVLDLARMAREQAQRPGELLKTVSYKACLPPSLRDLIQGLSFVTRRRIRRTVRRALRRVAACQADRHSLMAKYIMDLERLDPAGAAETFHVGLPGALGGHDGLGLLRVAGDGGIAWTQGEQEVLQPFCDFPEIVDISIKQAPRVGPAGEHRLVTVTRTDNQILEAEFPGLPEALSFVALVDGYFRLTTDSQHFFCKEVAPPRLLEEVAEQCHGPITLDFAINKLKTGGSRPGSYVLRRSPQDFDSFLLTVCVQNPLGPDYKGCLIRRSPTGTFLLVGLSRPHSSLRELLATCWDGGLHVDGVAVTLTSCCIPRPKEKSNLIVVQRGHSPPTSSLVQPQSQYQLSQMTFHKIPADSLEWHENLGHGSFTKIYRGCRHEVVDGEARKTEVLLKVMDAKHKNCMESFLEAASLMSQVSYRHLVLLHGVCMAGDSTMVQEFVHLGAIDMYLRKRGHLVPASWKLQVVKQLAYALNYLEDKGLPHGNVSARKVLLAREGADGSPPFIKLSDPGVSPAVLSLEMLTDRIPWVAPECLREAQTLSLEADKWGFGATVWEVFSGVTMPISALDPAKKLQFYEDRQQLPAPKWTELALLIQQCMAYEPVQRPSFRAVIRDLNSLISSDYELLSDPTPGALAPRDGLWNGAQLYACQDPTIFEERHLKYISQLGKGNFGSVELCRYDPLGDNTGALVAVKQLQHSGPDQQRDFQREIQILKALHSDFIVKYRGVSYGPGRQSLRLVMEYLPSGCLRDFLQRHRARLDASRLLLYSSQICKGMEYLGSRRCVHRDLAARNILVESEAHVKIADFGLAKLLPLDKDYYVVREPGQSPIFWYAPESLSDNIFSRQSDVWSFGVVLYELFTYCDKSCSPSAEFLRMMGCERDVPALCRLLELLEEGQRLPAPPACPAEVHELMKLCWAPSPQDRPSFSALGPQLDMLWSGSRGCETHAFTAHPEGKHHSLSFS
Outline: as §1

T1 sequence (O60674 whole entry): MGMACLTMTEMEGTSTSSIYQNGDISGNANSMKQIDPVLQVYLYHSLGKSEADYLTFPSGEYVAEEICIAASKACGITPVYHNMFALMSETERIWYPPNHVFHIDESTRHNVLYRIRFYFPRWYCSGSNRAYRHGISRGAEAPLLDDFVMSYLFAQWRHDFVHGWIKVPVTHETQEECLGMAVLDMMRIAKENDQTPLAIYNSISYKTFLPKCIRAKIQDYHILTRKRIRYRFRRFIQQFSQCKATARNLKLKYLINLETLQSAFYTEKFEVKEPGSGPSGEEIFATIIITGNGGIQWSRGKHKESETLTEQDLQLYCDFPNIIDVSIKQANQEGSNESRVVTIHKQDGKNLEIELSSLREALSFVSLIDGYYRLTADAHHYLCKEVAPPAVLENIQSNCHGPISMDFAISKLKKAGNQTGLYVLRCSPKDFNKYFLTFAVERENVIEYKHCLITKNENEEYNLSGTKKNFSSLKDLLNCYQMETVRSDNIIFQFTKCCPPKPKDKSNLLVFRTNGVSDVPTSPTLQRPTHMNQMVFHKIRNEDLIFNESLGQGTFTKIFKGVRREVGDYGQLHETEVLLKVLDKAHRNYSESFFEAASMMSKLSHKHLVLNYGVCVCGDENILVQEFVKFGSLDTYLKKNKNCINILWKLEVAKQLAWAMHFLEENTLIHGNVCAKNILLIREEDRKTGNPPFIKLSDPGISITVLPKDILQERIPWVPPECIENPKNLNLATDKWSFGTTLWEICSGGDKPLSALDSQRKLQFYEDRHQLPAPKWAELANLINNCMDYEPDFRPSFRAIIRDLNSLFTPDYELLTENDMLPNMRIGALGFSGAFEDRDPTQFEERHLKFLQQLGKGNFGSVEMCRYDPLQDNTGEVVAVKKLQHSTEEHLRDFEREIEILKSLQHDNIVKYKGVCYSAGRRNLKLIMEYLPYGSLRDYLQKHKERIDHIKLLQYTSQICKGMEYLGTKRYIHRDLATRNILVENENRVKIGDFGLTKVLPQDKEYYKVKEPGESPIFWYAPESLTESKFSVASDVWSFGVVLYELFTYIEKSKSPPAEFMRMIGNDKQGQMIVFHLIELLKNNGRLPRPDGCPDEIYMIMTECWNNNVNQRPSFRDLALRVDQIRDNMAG

Row | SMILES | IC50 [1] [nM] | IC50 [2] [nM]
1 | OCCn1cc(Nc2ncc3cnn(Cc4c(F)c(F)cc(F)c4F)c3n2)cn1 [Example 196, 2-(4-((1-(2,3,5,6-Tetrafluorobenzyl)-1H-pyrazolo[3,4-d]pyrimidin-6-yl)amino)-1H-pyrazol-1-yl)ethanol] | 100 to 1000 | < 100
2 | COCCNC(=O)c1cccc(Cn2ncc3cnc(Nc4cnn(C)c4)nc32)c1 [Example 200] | ≥ 10000 | < 100
3 | Cn1cc(Nc2ncc3cnn(Cc4cccc(-c5ccnc(N)c5)c4)c3n2)cn1 [Example 206, 1-(3-(2-Aminopyridin-4-yl)benzyl)-N-(1-methyl-1H-pyrazol-4-yl)-1H-pyrazolo[3,4-d]pyrimidin-6-amine] | ≥ 10000 | 100 to 1000
4 | Cn1cc(Nc2ncc3cnn(Cc4cccc(N5CC[C@@H](O)C5)n4)c3n2)cn1 [Example 208, (R)-1-(6-((6-((1-Methyl-1H-pyrazol-4-yl)amino)-1H-pyrazolo[3,4-d]pyrimidin-1-yl)methyl)pyridin-2-yl)pyrrolidin-3-ol] | ≥ 10000 | < 100
5 | Cn1cc(Nc2ncc3cnn(Cc4cccc(OCC(N)=O)c4)c3n2)cn1 [Example 209] | 1000 to 10000 | < 100
6 | Cn1cc(Nc2ncc3cnn(Cc4cccc(C5=CCOCC5)c4)c3n2)cn1 [Example 218, 1-(3-(3,6-Dihydro-2H-pyran-4-yl)benzyl)-N-(1-methyl-1H-pyrazol-4-yl)-1H-pyrazolo[3,4-d]pyrimidin-6-amine] | ≥ 10000 | < 100
7 | Cn1cc(Nc2ncc3cnn(-c4ccc5c(c4)NC(=O)CO5)c3n2)cn1 [Example 219, 6-(6-((1-Methyl-1H-pyrazol-4-yl)amino)-1H-pyrazolo[3,4-d]pyrimidin-1-yl)-2H-benzo[b][1,4]oxazin-3(4H)-one] | 100 to 1000 | < 100
8 | Cn1cc(Nc2ncc3cnn(Cc4ccccc4OCCOCc4ccccc4)c3n2)cn1 [Example 221, 1-(2-(2-(Benzyloxy)ethoxy)benzyl)-N-(1-methyl-1H-pyrazol-4-yl)-1H-pyrazolo[3,4-d]pyrimidin-6-amine] | 1000 to 10000 | 100 to 1000
9 | Cn1cc(Nc2ncc3cnn(Cc4cccc(OCCOCc5ccccc5)c4)c3n2)cn1 [Example 222, 1-(3-(2-(Benzyloxy)ethoxy)benzyl)-N-(1-methyl-1H-pyrazol-4-yl)-1H-pyrazolo[3,4-d]pyrimidin-6-amine] | ≥ 10000 | 100 to 1000
10 | Cn1cc(Nc2ncc3cnn(Cc4ccccc4Oc4ccccc4)c3n2)cn1 [Example 224, N-(1-Methyl-1H-pyrazol-4-yl)-1-(2-phenoxybenzyl)-1H-pyrazolo[3,4-d]pyrimidin-6-amine] | ≥ 10000 | 100 to 1000
11 | Cn1cc(Nc2ncc3cnn(Cc4cccc(OCCN5CCCC5=O)c4)c3n2)cn1 [Example 225, 1-(2-(3-((6-((1-Methyl-1H-pyrazol-4-yl)amino)-1H-pyrazolo[3,4-d]pyrimidin-1-yl)methyl)phenoxy)ethyl)pyrrolidin-2-one] | ≥ 10000 | < 100
12 | Cn1cc(Nc2ncc3cnn(Cc4cccc(-c5ccncc5)c4)c3n2)cn1 [Example 230, N-(1-Methyl-1H-pyrazol-4-yl)-1-(3-(pyridin-4-yl)benzyl)-1H-pyrazolo[3,4-d]pyrimidin-6-amine] | ≥ 10000 | < 100
13 | Cn1cc(Nc2ncc3cnn(Cc4cccc(N5CCOCC5)c4)c3n2)cc1C(=O)N1CCOCC1 [Example 248] | 1000 to 10000 | < 100
14 | OCCn1cc(Nc2ncc3cnn(Cc4c(F)ccc(F)c4F)c3n2)cn1 [Example 254, 2-(4-((1-(2,3,6-Trifluorobenzyl)-1H-pyrazolo[3,4-d]pyrimidin-6-yl)amino)-1H-pyrazol-1-yl)ethanol] | 100 to 1000 | < 100

Further lines, results first:

Row | IC50 [1] [nM] | IC50 [2] [nM] | SMILES
15 | 1000 to 10000 | 100 to 1000 | Cn1cc(Nc2ncc3cnn(Cc4cccc5ccccc45)c3n2)cn1 [Example 220, N-(1-Methyl-1H-pyrazol-4-yl)-1-(naphthalen-1-ylmethyl)-1H-pyrazolo[3,4-d]pyrimidin-6-amine]
16 | 100 to 1000 | < 100 | Cn1cc(Nc2ncc3cnn(Cc4cccc5c4OCO5)c3n2)cn1 [Example 228, 1-(Benzo[d][1,3]dioxol-4-ylmethyl)-N-(1-methyl-1H-pyrazol-4-yl)-1H-pyrazolo[3,4-d]pyrimidin-6-amine]
17 | 100 to 1000 | < 100 | Cn1cc(Nc2ncc3cnn(Cc4cccc5c4OCCO5)c3n2)cn1 [Example 229, 1-((2,3-Dihydrobenzo[b][1,4]dioxin-5-yl)methyl)-N-(1-methyl-1H-pyrazol-4-yl)-1H-pyrazolo[3,4-d]pyrimidin-6-amine]
18 | ≥ 10000 | 100 to 1000 | Cn1nc(Nc2ncc3cnn(Cc4ccccc4F)c3n2)cc1C(=O)O [Example 236, 3-((1-(2-Fluorobenzyl)-1H-pyrazolo[3,4-d]pyrimidin-6-yl)amino)-1-methyl-1H-pyrazole-5-carboxylic acid]
19 | ≥ 10000 | 100 to 1000 | Cn1cnc(Nc2ncc3cnn(Cc4ccccc4F)c3n2)c1 [Example 237, 1-(2-Fluorobenzyl)-N-(1-methyl-1H-imidazol-4-yl)-1H-pyrazolo[3,4-d]pyrimidin-6-amine]
20 | ≥ 10000 | 100 to 1000 | OCCn1ccc(Nc2ncc3cnn(Cc4ccccc4F)c3n2)n1 [Example 238, 2-(3-((1-(2-Fluorobenzyl)-1H-pyrazolo[3,4-d]pyrimidin-6-yl)amino)-1H-pyrazol-1-yl)ethanol]
21 | < 100 | < 100 | CNC(=O)c1cc(Nc2ncc3cnn(Cc4ccccc4F)c3n2)c[nH]1 [Example 239, 4-((1-(2-Fluorobenzyl)-1H-pyrazolo[3,4-d]pyrimidin-6-yl)amino)-N-methyl-1H-pyrrole-2-carboxamide]
22 | 1000 to 10000 | < 100 | OCCn1cnc(Nc2ncc3cnn(Cc4ccccc4F)c3n2)c1 [Example 240, 2-(4-((1-(2-Fluorobenzyl)-1H-pyrazolo[3,4-d]pyrimidin-6-yl)amino)-1H-imidazol-1-yl)ethanol]
23 | 1000 to 10000 | < 100 | Cn1ccc(Nc2ncc3cnn(Cc4ccccc4F)c3n2)c1 [Example 241, 1-(2-Fluorobenzyl)-N-(1-methyl-1H-pyrrol-3-yl)-1H-pyrazolo[3,4-d]pyrimidin-6-amine]
24 | 100 to 1000 | < 100 | CNC(=O)c1cc(Nc2ncc3cnn(Cc4ccccc4F)c3n2)cn1C [Example 242, 4-((1-(2-Fluorobenzyl)-1H-pyrazolo[3,4-d]pyrimidin-6-yl)amino)-N,1-dimethyl-1H-pyrrole-2-carboxamide]
25 | < 100 | < 100 | Cn1cc(Nc2ncc3cnn(Cc4ccccc4F)c3n2)cc1C(=O)NCCN1CCOCC1 [Example 243, 4-((1-(2-Fluorobenzyl)-1H-pyrazolo[3,4-d]pyrimidin-6-yl)amino)-1-methyl-N-(2-morpholinoethyl)-1H-pyrrole-2-carboxamide]
26 | < 100 | < 100 | Cn1cc(Nc2ncc3cnn(Cc4ccccc4F)c3n2)cc1C(=O)N1CCOCC1 [Example 244, (4-((1-(2-Fluorobenzyl)-1H-pyrazolo[3,4-d]pyrimidin-6-yl)amino)-1-methyl-1H-pyrrol-2-yl)(morpholino)methanone]
27 | 100 to 1000 | < 100 | Cn1cc(Nc2ncc3cnn(Cc4ccccc4F)c3n2)cc1C(=O)NCC#N [Example 245, N-(Cyanomethyl)-4-((1-(2-fluorobenzyl)-1H-pyrazolo[3,4-d]pyrimidin-6-yl)amino)-1-methyl-1H-pyrrole-2-carboxamide]
28 | 100 to 1000 | < 100 | CN(C)C(=O)c1cc(Nc2ncc3cnn(Cc4ccccc4F)c3n2)cn1C [Example 246, 4-((1-(2-Fluorobenzyl)-1H-pyrazolo[3,4-d]pyrimidin-6-yl)amino)-N,N,1-trimethyl-1H-pyrrole-2-carboxamide]
29 | 100 to 1000 | < 100 | OCCn1ccc(Nc2ncc3cnn(Cc4ccccc4F)c3n2)c1 [Example 247, 2-(3-((1-(2-Fluorobenzyl)-1H-pyrazolo[3,4-d]pyrimidin-6-yl)amino)-1H-pyrrol-1-yl)ethanol]
30 | 1000 to 10000 | < 100 | OCCn1cc(Nc2ncc3cnn(Cc4ccccc4C4CC4)c3n2)cn1 [Example 260, 2-(4-((1-(2-Cyclopropylbenzyl)-1H-pyrazolo[3,4-d]pyrimidin-6-yl)amino)-1H-pyrazol-1-yl)ethanol]
